Experimental data reported in US20020091265A1, “4-phenyl-pyridine derivatives” (priority 1999, published 2002).
Where a name gives a salt, the structure may show the parent alone.

Experiments:
human NK1 receptor [1] = biological target: T1, human NK1 receptor (Homo sapiens, UniProt P25103); assay: [3H]substance P binding at human NK1 receptors in CHO cells; settings: [3H]substance P 0.6 nM, 60 min room temperature, read-out: affinity (pKi) for the human NK1 receptor (converted)
Method: All assays were performed in triplicate in at least2 separate experiments.

NK3 receptors = biological target: T2, NK3 receptors (Homo sapiens, UniProt P29371); assay: Selectivity for NK1 compared to NK3 receptors; format: binding
T2 sequence (P29371 1-465): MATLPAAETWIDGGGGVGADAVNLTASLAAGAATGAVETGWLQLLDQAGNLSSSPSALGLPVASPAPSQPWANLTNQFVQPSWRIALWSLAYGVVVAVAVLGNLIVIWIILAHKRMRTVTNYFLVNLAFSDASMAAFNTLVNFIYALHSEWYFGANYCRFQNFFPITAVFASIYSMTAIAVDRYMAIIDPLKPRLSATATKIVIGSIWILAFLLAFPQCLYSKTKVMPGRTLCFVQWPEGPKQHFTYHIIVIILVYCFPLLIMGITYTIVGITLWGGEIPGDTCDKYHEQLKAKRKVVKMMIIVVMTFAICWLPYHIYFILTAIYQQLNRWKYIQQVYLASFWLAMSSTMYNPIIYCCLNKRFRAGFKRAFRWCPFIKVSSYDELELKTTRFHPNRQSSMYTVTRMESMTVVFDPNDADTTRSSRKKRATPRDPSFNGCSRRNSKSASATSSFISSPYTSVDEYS

NK2 receptors = biological target: T3, NK2 receptors (Homo sapiens, UniProt P21452); assay: Selectivity for NK1 compared to NK2 receptors; format: binding
T3 sequence (P21452 1-398): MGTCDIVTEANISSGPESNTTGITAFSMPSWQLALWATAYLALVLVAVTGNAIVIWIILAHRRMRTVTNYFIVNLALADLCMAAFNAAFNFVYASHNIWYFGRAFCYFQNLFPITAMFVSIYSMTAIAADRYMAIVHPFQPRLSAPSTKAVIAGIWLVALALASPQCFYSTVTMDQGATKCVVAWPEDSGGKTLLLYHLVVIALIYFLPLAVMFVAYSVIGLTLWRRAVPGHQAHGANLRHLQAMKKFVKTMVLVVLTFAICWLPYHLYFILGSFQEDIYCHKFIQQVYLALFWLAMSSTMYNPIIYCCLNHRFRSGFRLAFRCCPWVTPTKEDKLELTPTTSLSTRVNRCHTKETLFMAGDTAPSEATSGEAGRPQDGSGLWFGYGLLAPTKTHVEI

human NK1 receptor [2] = biological target: T1, human NK1 receptor; assay: Substance P induced Ca2+ influx in CHO cells (FLIPR); format: cell-based; design: expressed in transfected cells; host or cells: CHO cells; settings: for effect on substance P induced Ca2+ influxes: CHO cells expressing recombinant human NK1 receptor, FLIPR; for type of antagonism at human recombinant NK1 receptors: from Ca2+ influx data
Text: (§1) The activity in vitro of the compound of formula 1a was examined by studying its effect on substance P induced Ca^2+ influxes in CHO cells expressing the recombinant human NK1 receptor. In these cells, substance P causes a concentration dependent influx of Ca^2+ which can be measured using FLIPR technology.
The activity of 2-(3,5-bis-trifluoromethyl-phenyl)-N-methyl-N-[^6-(^4-methyl-piperazin-1-yl)-4-o-tolyl-pyridin-3-yl]-isobutyramide in vitro was examined by studying its effect on substance P induced Ca^2+influxes in CHO cells expressing the recombinant human NK1 receptor. In these cells, substance P causes a concentration dependent influx of Ca^2+ which can be measured using FLIPR technology.
as §1, with “activity” for “activity in vitro”, “Ic in vitro” for “1a”

[3] = Pharmacokinetic parameters in rats; settings: rat, in vivo; for bioavailability: po; for half-life: read-out: terminal half-life (converted); for Vd: read-out: volume of distribution
in vivo = settings: dog; for bioavailability: po
Text: The pharmacokinetic parameters have been evaluated in both rats and dogs.

[4] = system: foot-tapping behaviour induced in gerbils with an NK1 receptor agonist; assay: Foot-tapping behaviour induced by i.c.v. NK1 receptor agonist; format: in vivo, gerbil; settings: for dose calculated to inhibit 50% of the foot-tapping behaviour: oral administration
Method: (§2) In vivo the compound of formula Ia antagonises foot-tapping behaviour induced in gerbils with intracerebroventricular (i.c.v.) injections of an NK1 receptor agonist. The dose for this compound calculated to inhibit 50% of the foot-tapping behaviour following oral administration was 0.2 mg/kg.
as §2, with “2-(3,5-bis-trifluoromethyl-phenyl)-N-methyl-N-[6-(4-methyl-piperazin-1-yl)-4-o-tolyl-pyridin-3-yl]-isobutyramide” for “the compound of formula Ia”, “Gerbils” for “gerbils”, “of” for “for”, “0.5” for “0.2”
In vivo the compound of formula Ic antagonises foot-tapping behaviour induced in Gerbils with intracerebroventricular (i.c.v.) injections of an NK1 receptor agonist. The dose of this compound calculated to inhibit 50% of the foot-tapping behaviour following oral administration was 1.5 mg/kg.

[5] = system: emesis induced in ferrets by emetogens; assay: Antiemetic test in ferrets; format: in vivo, ferret; settings: for emesis induced by all emetogens (apomorphine, morphine, ipecacuanha, cisplatin, CuSO4): 0.3 mg/kg p.o., 2 hours before the emetogen
Method: The compound of formula 1a, 2-(3,5-Bis-trifluoromethyl-phenyl)-N-methyl-N-(6-morpholin-4-yl-4-o-tolyl-pyridin-3-yl)-isobutyramide, was also tested as an antiemetic agent in ferrets.
2-(3,5-bis-trifluoromethyl-phenyl)-N-methyl-N-[6-(4-methyl-piperazin-1-yl)-4-o-tolyl-pyridin-3-yl]-isobutyramide was also tested as an antiemetic agent in Ferrets.

[6] = system: over 50 other binding sites; assay: Selectivity for NK1 compared to over 50 other binding sites
[7] = system: motion sickness in the suncus murinus; assay: Model of motion sickness in suncus murinus; format: in vivo; settings: po

T1 sequence (P25103 whole entry): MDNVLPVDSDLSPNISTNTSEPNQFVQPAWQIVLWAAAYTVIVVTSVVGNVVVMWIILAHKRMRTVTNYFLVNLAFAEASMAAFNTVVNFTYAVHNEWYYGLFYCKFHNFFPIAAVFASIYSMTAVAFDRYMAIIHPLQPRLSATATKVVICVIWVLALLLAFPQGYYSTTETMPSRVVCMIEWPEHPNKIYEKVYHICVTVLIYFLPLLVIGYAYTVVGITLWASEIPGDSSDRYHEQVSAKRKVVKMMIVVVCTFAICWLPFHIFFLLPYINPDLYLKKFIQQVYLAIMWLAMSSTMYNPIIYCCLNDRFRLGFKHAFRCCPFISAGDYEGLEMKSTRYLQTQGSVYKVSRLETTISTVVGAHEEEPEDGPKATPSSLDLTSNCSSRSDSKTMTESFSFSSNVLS

Cc1ccccc1-c1cc(N(C)C)ncc1N(C)C(=O)C(C)(C)c1cc(C(F)(F)F)cc(C(F)(F)F)c1 (as salt: hydrochloride) [Example 29, 2-(3,5-Bis-trifluoromethyl-phenyl)-N-(6-dimethylamino-4-o-tolyl-pyridin-3-yl)-N-methyl-isobutyramide]
melting point: 174 to 175 °C

Cc1ccccc1-c1cc(N2CCOCC2)ncc1N(C)C(=O)C(C)(C)c1cc(C(F)(F)F)cc(C(F)(F)F)c1 (as salt: hydrochloride) [Ia, 2-(3,5-bis-trifluoromethyl-phenyl)-N-methyl-N-(6-morpholin-4-yl-4-o-tolyl-pyridin-3-yl)-isobutyramide]
melting point: 73.5 to 76 °C

CN(C(=O)C(C)(C)c1cc(C(F)(F)F)cc(C(F)(F)F)c1)c1cnccc1-c1ccccc1Cl (as salt: hydrochloride) [Ic, 2-(3,5-Bis-trifluoromethyl-phenyl)-N-[4-(2-chloro-phenyl)-pyridin-3-yl]-N-methyl-isobutyramide]
melting point: 186 to 188 °C

Cc1ccccc1-c1ccncc1N(C)C(=O)C(C)(C)c1cc(C(F)(F)F)cc(C(F)(F)F)c1 [Example 18, 2-(3,5-Bis-trifluoromethyl-phenyl)-N-methyl-N-(4-o-tolyl-pyridin-3-yl)-isobutyramide Hydrochloride (1:1)]
Ki (human NK1 receptor [1]): 3.39 nM

Cc1ccccc1-c1cc(N(C)CCN2CCOCC2)ncc1N(C)C(=O)C(C)(C)c1cc(C(F)(F)F)cc(C(F)(F)F)c1 [Example 25, 2-(3,5-Bis-trifluoromethyl-phenyl)-N-methyl-N-{6-[methyl-(2-morpholin-4-yl-ethyl)-amino]-4-o-tolyl-pyridin-3-yl}-isobutyramide]
Ki (human NK1 receptor [1]): 2 nM

Cc1ccccc1-c1cc(N2CCNCC2)ncc1N(C)C(=O)C(C)(C)c1cc(C(F)(F)F)cc(C(F)(F)F)c1 [Example 31, 2-(3,5-Bis-trifluoromethyl-phenyl)-N-methyl-N-(6-piperazin-1-yl-4-o-tolyl-pyridin-3-yl)-isobutyramide]
Ki (human NK1 receptor [1]): 1 nM

Cc1ccccc1-c1cc(N2CCN(Cc3n[nH]c(=O)[nH]3)CC2)ncc1C(=O)N(C)Cc1cc(C(F)(F)F)cc(C(F)(F)F)c1 [Example 58, N-(3,5-Bis-trifluoromethyl-benzyl)-N-methyl-6-[4-(5-oxo-4,5-dihydro-1H-[1,2,4]triazol-3-ylmethyl)-piperazin-1-yl]-4-o-tolyl-nicotinamide]
Ki (human NK1 receptor [1]): 0.288 nM

CC(C)c1cc(Cl)ncc1C(=O)NC(C)(C)C [Example 83, N-tert-Butyl-6-chloro-4-(prop-2-yl)-nicotinamide]
melting point: 130 to 140 °C (dec.)

CC(C)(C)NC(=O)c1cnc(Cl)cc1-c1ccc(F)cc1 [Example 84, N-tert.-Butyl-6-chloro-4-p-fluoro-phenyl-nicotinamide]
melting point: 168 to 173 °C

Cc1ccccc1-c1cc(N2CCOCC2)ncc1N(C)C(=O)C(C)(C)c1cc(C(F)(F)F)cc(C(F)(F)F)c1 [Ia, 2-(3,5-bis-trifluoromethyl-phenyl)-N-methyl-N-(6-morpholin-4-yl-4-o-tolyl-pyridin-3-yl)-isobutyramide]
selectivity for the NK1 receptor compared to NK3 receptors (NK3 receptors): over 2 orders of magnitude
selectivity for the NK1 receptor compared to NK2 receptors (NK2 receptors): over 2 orders of magnitude
effect on substance P induced Ca2+ influxes (human NK1 receptor [2]): rightward shift in the concentration effect curve of substance P
type of antagonism at human recombinant NK1 receptors (human NK1 receptor [2]): competitive antagonist
slope of the Schild regression (human NK1 receptor [2]; substance P induced Ca2+ influx, CHO cells): 1.1
clearance [3]: 4 mL/min/kg
bioavailability [3]: 50%
half-life [3]: 23 h
Vd [3]: 8 L/kg
Ki (human NK1 receptor [1]): 1 nM
Vd (in vivo): 22 L/kg
clearance (in vivo): 16 mL/min/kg
half-life (in vivo): 40 h
bioavailability (in vivo): 30 to 40%
dose calculated to inhibit 50% of the foot-tapping behaviour [4]: 0.2 mg/kg
emesis induced by all emetogens (apomorphine, morphine, ipecacuanha, cisplatin, CuSO4) [5]: completely blocked
selectivity for the NK1 receptor compared to over 50 other binding sites [6]: over 2 orders of magnitude

Cc1ccccc1-c1cc(N2CCN(C)CC2)ncc1N(C)C(=O)C(C)(C)c1cc(C(F)(F)F)cc(C(F)(F)F)c1 [Ib, 2-(3,5-bis-trifluoromethyl-phenyl)-N-methyl-N-[6-(4-methyl-piperazin-1-yl)-4-o-tolyl-pyridin-3-yl]-isobutyramide]
selectivity for the NK1 receptor compared to NK3 receptors (NK3 receptors): over 2 orders of magnitude
selectivity for the NK1 receptor compared to NK2 receptors (NK2 receptors): over 2 orders of magnitude
effect on substance P induced Ca2+ influxes (human NK1 receptor [2]): inhibited this effect in a concentration dependent manner
type of antagonism at human recombinant NK1 receptors (human NK1 receptor [2]): competitive antagonist
clearance [3]: 3.7 mL/min/kg
bioavailability [3]: 45%
half-life [3]: 24 h
Vd [3]: 5.7 L/kg
Ki (human NK1 receptor [1]): 1 nM
Vd (in vivo): 15 L/kg
clearance (in vivo): 9.2 mL/min/kg
half-life (in vivo): 18 h
bioavailability (in vivo): 75%
ED50 [7]: 0.2 mg/kg
total plasma concentration required to completely block the foot-tapping behaviour [4]: 30 ng/mL
dose calculated to inhibit 50% of the foot-tapping behaviour [4]: 0.5 mg/kg
emesis induced by all emetogens (apomorphine, morphine, ipecacuanha, cisplatin, CuSO4) [5]: completely blocked
ED50 ([5]; Mustela putorius, po, read-out: ED50 against apomorphine-induced emesis): 0.1 mg/kg
selectivity for the NK1 receptor compared to over 50 other binding sites [6]: over 2 orders of magnitude

CN(C(=O)C(C)(C)c1cc(C(F)(F)F)cc(C(F)(F)F)c1)c1cnccc1-c1ccccc1Cl [Ic, 2-(3,5-Bis-trifluoromethyl-phenyl)-N-[4-(2-chloro-phenyl)-pyridin-3-yl]-N-methyl-isobutyramide]
selectivity for the NK1 receptor compared to NK3 receptors (NK3 receptors): over 2 orders of magnitude
selectivity for the NK1 receptor compared to NK2 receptors (NK2 receptors): over 2 orders of magnitude
effect on substance P induced Ca2+ influxes (human NK1 receptor [2]): inhibited this effect in a concentration dependent manner
type of antagonism at human recombinant NK1 receptors (human NK1 receptor [2]): competitive antagonist
clearance [3]: 45 mL/min/kg
bioavailability [3]: ~30%
half-life [3]: 11 h
Vd [3]: 2.6 L/kg
Ki (human NK1 receptor [1]): 2.51 nM
Vd (in vivo): 4.5 L/kg
clearance (in vivo): 30 mL/min/kg
half-life (in vivo): 3.5 h
bioavailability (in vivo): 16%
total plasma concentration required to completely block the foot-tapping behaviour [4]: 100 ng/mL
dose calculated to inhibit 50% of the foot-tapping behaviour [4]: 1.5 mg/kg
selectivity for the NK1 receptor compared to over 50 other binding sites [6]: over 2 orders of magnitude
